# Measurements published in patent US11406707B2, “STAT3 phosphorylation during graft-versus-host disease” (H. LEE MOFFITT CANCER CENTER AND RESEARCH INSTITUTE, INC., priority 2014, dated 2022).
# Legend:
# STAT3 = molecular target: T1, STAT3 (Homo sapiens, UniProt P40763); experiment: STAT3 phosphorylation in CD4+ T cells of 5 day allo-MLRs without exogenous cytokine; assay type: cell-based; conditions: S3I-201 50 or 100 μM, 5 day allo-MLR
# T1 construct: endogenous in cells; host or cells: primary human T cells from healthy-donor PBMC, allostimulated by monocyte-derived dendritic cells
# Description: No exogenous cytokine was added. DC-allosensitized T cells were harvested on day 5. […] The ratio of CD4^+, pSTAT5^Bright to CD4^+, pSTAT3^+ T cells was calculated by percentage of phosphorylation.
# iTregs and Tconvs = experiment: iTreg and Tconv expansion from DC-allostimulated naive CD4+ T cells; assay type: cell-based, human
# Description: To evaluate iTreg development, naive CD4^+ cells were isolated from nylon-wool-eluted T cells by magnetic-bead selection (Miltenyi Biotec), based on the positive expression of CD4 and lack of CD45RO, CD25, or both. In addition, CD127 staining of the naive CD4^+ cells was performed after the purification, to ensure depletion of natural Tregs from the cell product. Negligible amounts of CD127^-, CD25^Bright nTregs were observed after magnetic-bead purification. […] The T cells were harvested and surface stained on day 5 for CD3, -4, -25, and -127, followed by fixation and permeabilization (eBioscience), and then intracellular staining for Foxp3 [Liu, W., et al. (2006) J. Exp. Med. 203, 1701-1711; […]., et al. (2006) J. Exp. Med. 203, 1693-1700]. Tregs were characterized by gating on the live cells expressing surface CD3^+, CD4^+, and absence of CD127, followed by expression of Foxp3 and CD25^bright [Liu, W., et al. (2006) J. Exp. Med. 203, 1701-1711; […]., et al. (2006) J. Exp. Med. 203, 1693-1700]. The absolute number of iTregs and Tconv (CD4^+ CD25^-) cells was obtained by timed acquisition. The ratio of iTreg:Tconv was calculated based on the absolute number of each T-cell population.
# [1] = molecular target: STAT3 Ser727 and Y705 motifs (Homo sapiens, UniProt P40763); conditions: literature; cited from earlier work
# TH17 cells = experiment: Evaluation of TH17 responses (CD4+ IL-17A+ T cells, IL-17A ELISA); assay type: cell-based, human
# Description: To optimize the detection of IL-17A producing cells, nylon-wool-purified T cells underwent CD4^+ magnetic-bead selection. The CD4^+ T cells were cultured in triplicate with allogeneic, mature moDCs (DC:T cell ratio 1:30, 1×10^6 T cells/1 ml medium in a 48-well plate, 37° C.) and treated with S3I-201 (50 or 100 μM) or DMSO. The medium was supplemented with IL-6 (10^5 IU/ml), TGF-β (4 ng/ml), and anti-IFN-γ mAb (10 μg/ml) to support TH17 growth. The T cells were harvested and stimulated with PMA/ionomycin for 5 h, with GolgiStop Protein Transport Inhibitor (BD Biosciences) added after 1 h of activation. TH17 cells were identified by surface CD3 and CD4 expression, followed by intracellular staining for IL-17A. The absolute number of IL-17A-producing CD4^+ T cells was obtained by timed acquisition.
# The concentration of IL-17A was measured (anti-human IL-17A [homodimer] ELISA Ready-Set-Go; eBioscience) in the supernatant of identically prepared and drug-treated CD4 T-cell allo-MLRs (DC:T cell ratio 1:30, 1.5×10^5 T cells per 125 μl medium in a 96-well plate, 37° C.). After 5 days, PMA/ionomycin was added directly to the cultures and stimulated for 5 h. GolgiStop was omitted from the PMA/ionomycin activation step, to permit detection of IL-17A in the culture supernatants. The supernatants were collected, and the IL-17A protein concentration was measured in triplicate, per the manufacturer's instructions.
# STAT5 = experiment: IL-2-pulsed STAT5 phosphorylation in alloactivated T cells (flow cytometry); assay type: cell-based, human
# Description: The 3-day exposure to allogenic moDCs allows the responding T cells to increase CD25 expression and capacity to receive IL-2 signaling, while resting or stimulated T cells phosphorylate STAT3 in response to IL-6 [Betts, B. C., et al. (2011) Blood 118, 5330-5339]. […] T-cell STAT phosphorylation was determined by surface staining for CD3, followed by fixation (CytoFix; […] The percentage of STAT3 and bright STAT5 phosphorylation in the T cells is depicted by the gates in each respective histogram (FIG. 1C, D).
# RORgammaT = RORgammaT expression by RT-PCR in allostimulated CD4+ T-cells; assay type: cell-based, human; conditions: S3I-201 alone, 5 days
# Description: To optimize the detection of RORgammaT expression, CD4+ T-cells were isolated by magnetic bead negative selection (Miltenyi Biotec, Auburn, Calif. USA). […] (2011) Blood 118:5330-9; Betts, B C, et al. (2013) J Leukoc Biol. 2014 95(2):205-13; Betts, B C, et al. (2011) Blood 118:5340-3]. […] After the 5 day culture, the T-cells were harvested. Total RNA was extracted using TRIZOL (Life Technologies) according to manufacturer instructions. […] RT-PCR was carried out on an ABI 7900 instrument (Applied Biosystems) and performed [Ratajewski, M, et al. (2012) J Immunol 189:3034-42] with some modification using SYBR® Green PCR Master Mix (Life Technologies) as follows: 10 minutes at 95° C. and then 45 cycles each at 95° C. for 15 seconds, 59° C. for 45 seconds, and 72° C. for 10 seconds. The following primers were used: RORgammaT forward [NT] ID NO:7) and reverse […] NO:8); GAPDH forward [NT] ID NO:9) and reverse [NT] ID NO:10). PCR product purity was assessed by dissociation curves. The differences in gene expression were calculated by 2-ΔΔCt in triplicate. Data were normalized to GAPDH expression.
# [2] = S3I-201 50 or 100 μM, 5 day coculture with IL-6, TGF-β, anti-IFN-γ mAb
# Sequence of STAT3 Ser727 and Y705 motifs (P40763 whole entry): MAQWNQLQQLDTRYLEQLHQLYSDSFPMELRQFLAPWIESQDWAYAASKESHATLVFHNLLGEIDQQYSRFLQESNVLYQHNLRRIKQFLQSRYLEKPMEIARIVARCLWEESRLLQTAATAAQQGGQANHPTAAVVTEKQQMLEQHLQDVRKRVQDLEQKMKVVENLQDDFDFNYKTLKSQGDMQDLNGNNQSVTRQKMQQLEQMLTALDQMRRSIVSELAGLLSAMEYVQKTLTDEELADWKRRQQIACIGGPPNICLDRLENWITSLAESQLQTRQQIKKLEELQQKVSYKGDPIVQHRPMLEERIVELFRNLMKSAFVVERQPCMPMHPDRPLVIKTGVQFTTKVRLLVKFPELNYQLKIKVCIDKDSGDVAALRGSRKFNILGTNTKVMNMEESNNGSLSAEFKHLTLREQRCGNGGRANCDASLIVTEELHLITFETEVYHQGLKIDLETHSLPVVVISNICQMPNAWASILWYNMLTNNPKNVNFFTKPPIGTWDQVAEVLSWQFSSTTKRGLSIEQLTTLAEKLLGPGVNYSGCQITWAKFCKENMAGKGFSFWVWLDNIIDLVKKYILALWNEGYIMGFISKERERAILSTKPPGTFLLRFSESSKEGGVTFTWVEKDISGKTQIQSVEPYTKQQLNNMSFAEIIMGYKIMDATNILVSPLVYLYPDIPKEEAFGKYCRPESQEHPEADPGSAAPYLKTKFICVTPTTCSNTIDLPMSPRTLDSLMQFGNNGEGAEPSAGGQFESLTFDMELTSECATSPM
# T1 sequence (P40763 whole entry): as above
smiles,measurement,setting,value
Cc1ccc(S(=O)(=O)OCC(=O)Nc2ccc(C(=O)O)c(O)c2)cc1 [S3I-201],STAT3 phosphorylation in CD4+ alloresponders,STAT3,maintained on-target suppression
same,absolute number of iTregs,"iTregs and Tconvs; S3I-201 25 μM and 50 μM, dose-dependent, day 5",significantly increased
same,number of iTregs compared with DMSO,iTregs and Tconvs; S3I-201 100 μM,significantly reduced
same,number of alloreactive Tconvs,"iTregs and Tconvs; S3I-201, day 5",dramatically reduced
same,ratio of iTregs to Tconvs,"iTregs and Tconvs; S3I-201, day 5",increased ratio
same,phosphorylation of the STAT3 Ser727 motif,[1],much less
same,phosphorylation of the STAT3 Y705 motif,[1],predominantly inhibits
same,"absolute numbers of CD4+, IL-17A+ T cells compared with DMSO",TH17 cells; [2],significant reduction
same,"frequency of CD4+, IL-17A+ T cells compared with DMSO",TH17 cells; [2],significant reduction
same,IL-17A protein concentration in coculture supernatants,"TH17 cells; S3I-201, 5 day coculture, ELISA",significant decrease
same,"off-target effect on IL-2/STAT5 phosphorylation (geometric MFI ratio, percentage)",STAT5; S3I-201 100 μM vs DMSO,decrease in IL-2/STAT5 phosphorylation
same,IL-2-induced STAT5 phosphorylation,"STAT5; S3I-201 50 or 100 μM, 15 min IL-2 pulse, vs unstimulated baseline",occurred in all treated T cells
same,RORgammaT expression compared with DMSO,RORgammaT,significant suppression
